ChEMBL document CHEMBL1781873, “Synthesis and antibacterial property of pyrrolopyrano quinolinones and pyrroloquinolines” (2011)
In brackets after ≈: the same amount, converted by molar mass. Activity calls are given as the source filed them. The rule behind the calls is not given here.

What was measured:
Bacillus subtilis [1] = test: Antibacterial activity against Bacillus subtilis at 25 ug after 24 hrs by disc diffusion assay; assay type: functional; conditions: read-out: IZ
Staphylococcus aureus [2] = test: Antibacterial activity against Staphylococcus aureus at 20 ug after 24 hrs by disc diffusion assay; assay type: functional; conditions: read-out: IZ
Staphylococcus aureus [3] = test: Antibacterial activity against Staphylococcus aureus at 5 ug after 24 hrs by disc diffusion assay; assay type: functional; conditions: read-out: IZ
Escherichia coli [4] = test: Antibacterial activity against Escherichia coli at 20 ug after 24 hrs by disc diffusion assay; assay type: functional; conditions: read-out: IZ
Escherichia coli [5] = test: Antibacterial activity against Escherichia coli at 25 ug after 24 hrs by disc diffusion assay; assay type: functional; conditions: read-out: IZ
Bacillus subtilis [6] = test: Antibacterial activity against Bacillus subtilis at 20 ug after 24 hrs by disc diffusion assay; assay type: functional; conditions: read-out: IZ
Klebsiella pneumoniae [7] = test: Antibacterial activity against Klebsiella pneumoniae after 18 to 20 hrs by broth micro dilution assay; assay type: functional
Pseudomonas aeruginosa [8] = test: Antibacterial activity against Pseudomonas aeruginosa at 10 ug after 24 hrs by disc diffusion assay; assay type: functional; conditions: read-out: IZ
Pseudomonas aeruginosa [9] = test: Antibacterial activity against Pseudomonas aeruginosa at 5 ug after 24 hrs by disc diffusion assay; assay type: functional; conditions: read-out: IZ
Salmonella typhi [10] = test: Antibacterial activity against Salmonella typhi at 5 ug after 24 hrs by disc diffusion assay; assay type: functional, Salmonella enterica subsp. enterica serovar Typhi; conditions: Salmonella enterica, read-out: IZ
Escherichia coli [11] = test: Antibacterial activity against Escherichia coli at 5 ug after 24 hrs by disc diffusion assay; assay type: functional; conditions: read-out: IZ
Staphylococcus aureus [12] = test: Antibacterial activity against Staphylococcus aureus at 25 ug after 24 hrs by disc diffusion assay; assay type: functional; conditions: read-out: IZ
Escherichia coli [13] = test: Antibacterial activity against Escherichia coli after 18 to 20 hrs by broth micro dilution assay; assay type: functional
Pseudomonas aeruginosa [14] = test: Antibacterial activity against Pseudomonas aeruginosa after 18 to 20 hrs by broth micro dilution assay; assay type: functional
Escherichia coli [15] = test: Inhibition of Escherichia coli DNA gyrase -mediated DNA relaxation using pBR322 DNA as substrate at […] after 1 hrs by agarose gel electrophoresis
Bacillus subtilis [16] = test: Antibacterial activity against Bacillus subtilis after 18 to 20 hrs by broth micro dilution assay; assay type: functional
Staphylococcus aureus [17] = test: Antibacterial activity against Staphylococcus aureus at 10 ug after 24 hrs by disc diffusion assay; assay type: functional; conditions: read-out: IZ
Escherichia coli [18] = test: Antibacterial activity against Escherichia coli at 15 ug after 24 hrs by disc diffusion assay; assay type: functional; conditions: read-out: IZ
Klebsiella pneumoniae [19] = test: Antibacterial activity against Klebsiella pneumoniae at 20 ug after 24 hrs by disc diffusion assay; assay type: functional; conditions: read-out: IZ
Salmonella typhi [20] = test: Antibacterial activity against Salmonella typhi at 20 ug after 24 hrs by disc diffusion assay; assay type: functional, Salmonella enterica subsp. enterica serovar Typhi; conditions: Salmonella enterica, read-out: IZ
Salmonella typhi [21] = test: Antibacterial activity against Salmonella typhi at 10 ug after 24 hrs by disc diffusion assay; assay type: functional, Salmonella enterica subsp. enterica serovar Typhi; conditions: Salmonella enterica, read-out: IZ
Escherichia coli [22] = test: Inhibition of Escherichia coli DNA gyrase assessed as inhibition of DNA supercoiling activity using pBR322 DNA as substrate at […] after 3 hrs by agarose gel electrophoresis
Salmonella typhi [23] = test: Antibacterial activity against Salmonella typhi after 18 to 20 hrs by broth micro dilution assay; assay type: functional, Salmonella enterica subsp. enterica serovar Typhi; conditions: Salmonella enterica
Escherichia coli [24] = test: Antibacterial activity against Escherichia coli at 10 ug after 24 hrs by disc diffusion assay; assay type: functional; conditions: read-out: IZ
Salmonella typhi [25] = test: Antibacterial activity against Salmonella typhi at 15 ug after 24 hrs by disc diffusion assay; assay type: functional, Salmonella enterica subsp. enterica serovar Typhi; conditions: Salmonella enterica, read-out: IZ
Escherichia coli [26] = test: Inhibition of DNA gyrase mRNA expression in Escherichia coli measured up to 24 hrs by RT-PCR; assay type: functional, organism-based
Bacillus subtilis [27] = test: Antibacterial activity against Bacillus subtilis at 15 ug after 24 hrs by disc diffusion assay; assay type: functional; conditions: read-out: IZ
Klebsiella pneumoniae [28] = test: Antibacterial activity against Klebsiella pneumoniae at 5 ug after 24 hrs by disc diffusion assay; assay type: functional; conditions: read-out: IZ
Staphylococcus aureus [29] = test: Antibacterial activity against Staphylococcus aureus at 15 ug after 24 hrs by disc diffusion assay; assay type: functional; conditions: read-out: IZ
Staphylococcus aureus [30] = test: Antibacterial activity against Staphylococcus aureus after 18 to 20 hrs by broth micro dilution assay; assay type: functional
Pseudomonas aeruginosa [31] = test: Antibacterial activity against Pseudomonas aeruginosa at 25 ug after 24 hrs by disc diffusion assay; assay type: functional; conditions: read-out: IZ
Pseudomonas aeruginosa [32] = test: Antibacterial activity against Pseudomonas aeruginosa at 20 ug after 24 hrs by disc diffusion assay; assay type: functional; conditions: read-out: IZ
Salmonella typhi [33] = test: Antibacterial activity against Salmonella typhi at 25 ug after 24 hrs by disc diffusion assay; assay type: functional, Salmonella enterica subsp. enterica serovar Typhi; conditions: Salmonella enterica, read-out: IZ
Pseudomonas aeruginosa [34] = test: Antibacterial activity against Pseudomonas aeruginosa at 15 ug after 24 hrs by disc diffusion assay; assay type: functional; conditions: read-out: IZ
Klebsiella pneumoniae [35] = test: Antibacterial activity against Klebsiella pneumoniae at 25 ug after 24 hrs by disc diffusion assay; assay type: functional; conditions: read-out: IZ
Klebsiella pneumoniae [36] = test: Antibacterial activity against Klebsiella pneumoniae at 15 ug after 24 hrs by disc diffusion assay; assay type: functional; conditions: read-out: IZ
Klebsiella pneumoniae [37] = test: Antibacterial activity against Klebsiella pneumoniae at 10 ug after 24 hrs by disc diffusion assay; assay type: functional; conditions: read-out: IZ

## CCC1[C@@H]2Nc3ccc(Cl)cc3C(C)(C)[C@H]2CN1OS(=O)(=O)c1ccc(C)cc1 (stereo partly drawn)
Bacillus subtilis [1]
  zone of inhibition at 25 µg/disc: 9 mm
Staphylococcus aureus [2]
  zone of inhibition at 20 µg/disc: 30 mm
Staphylococcus aureus [3]
  zone of inhibition at 5 µg/disc: 20 mm
Escherichia coli [4]
  zone of inhibition at 20 µg/disc: 20 mm
Escherichia coli [5]
  zone of inhibition at 25 µg/disc: 23 mm
Bacillus subtilis [6]
  zone of inhibition at 20 µg/disc: 7 mm
Klebsiella pneumoniae [7]
  MIC50: 128 µg/mL (≈ 294 µM)
  MIC90: 128 µg/mL (≈ 294 µM)
Pseudomonas aeruginosa [8]
  zone of inhibition at 10 µg/disc: 14 mm
Pseudomonas aeruginosa [9]
  zone of inhibition at 5 µg/disc: 10 mm
Salmonella typhi [10]
  zone of inhibition at 5 µg/disc: 10 mm
Escherichia coli [11]
  zone of inhibition at 5 µg/disc: 10 mm
Staphylococcus aureus [12]
  zone of inhibition at 25 µg/disc: 36 mm
Escherichia coli [13]
  MIC50: 128 µg/mL (≈ 294 µM)
  MIC90: 128 µg/mL (≈ 294 µM)
Pseudomonas aeruginosa [14]
  MIC50: 128 µg/mL (≈ 294 µM)
  MIC90: 128 µg/mL (≈ 294 µM)
Escherichia coli [15]
  inhibition: Active
Bacillus subtilis [16]
  MIC50: 128 µg/mL (≈ 294 µM)
  MIC90: 128 µg/mL (≈ 294 µM)
Staphylococcus aureus [17]
  zone of inhibition at 10 µg/disc: 24 mm
Escherichia coli [18]
  zone of inhibition at 15 µg/disc: 18 mm
Klebsiella pneumoniae [19]
  zone of inhibition at 20 µg/disc: 34 mm
Salmonella typhi [20]
  zone of inhibition at 20 µg/disc: 22 mm
Salmonella typhi [21]
  zone of inhibition at 10 µg/disc: 16 mm
Escherichia coli [22]
  DNA gyrase inhibition (active/inactive): Active
Salmonella typhi [23]
  MIC50: 128 µg/mL (≈ 294 µM)
  MIC90: 128 µg/mL (≈ 294 µM)
Escherichia coli [24]
  zone of inhibition at 10 µg/disc: 16 mm
Salmonella typhi [25]
  zone of inhibition at 15 µg/disc: 18 mm
Escherichia coli [26]
  inhibition of gyrase mRNA expression (active/not active): Active
Bacillus subtilis [27]
  zone of inhibition at 15 µg/disc: 6 mm
Klebsiella pneumoniae [28]
  zone of inhibition at 5 µg/disc: 20 mm
Staphylococcus aureus [29]
  zone of inhibition at 15 µg/disc: 26 mm
Staphylococcus aureus [30]
  MIC50: 128 µg/mL (≈ 294 µM)
  MIC90: 128 µg/mL (≈ 294 µM)
Pseudomonas aeruginosa [31]
  zone of inhibition at 25 µg/disc: 23 mm
Pseudomonas aeruginosa [32]
  zone of inhibition at 20 µg/disc: 20 mm
Salmonella typhi [33]
  zone of inhibition at 25 µg/disc: 24 mm
Pseudomonas aeruginosa [34]
  zone of inhibition at 15 µg/disc: 16 mm
Klebsiella pneumoniae [35]
  zone of inhibition at 25 µg/disc: 36 mm
Klebsiella pneumoniae [36]
  zone of inhibition at 15 µg/disc: 30 mm
Klebsiella pneumoniae [37]
  zone of inhibition at 10 µg/disc: 26 mm
